These results are taken from patent publication US20240075050A1, “Methods and Compositions for Treating Leucine Rich Repeat Kinase 2 (LRRK2)-Associated Disorder or Condition” (University of Connecticut, priority 2022, published 2024).

SMILES strings stand for the structures.

In the test the test system is DA neurons in substantia nigra pars compacta. Nature of the test: LPS-induced DA neurodegeneration in mice, TH-positive neurons in SNpc. It counts as in vivo, mouse. The settings on record: 21 days. Here is the method:
Stereotaxic intracranial injection. Three days before survival surgery, osmotic pumps (ALZET, 1004) were filled with saline, 1 mg/ml or 30 mg/ml AICAr in saline, assembled with brain infusion kits (ALZET, Brain Infusion Kit 2), and incubated in saline at 37° C. 3-month-old mice were anesthetized by isoflurane gas supplemented with 0.5 L/min oxygen. A ˜1.5 cm incision was made midline on the scalp. For mouse striatum injection, one hole was drilled at the following coordinates: anterioposterior=+0.5 mm from bregma; lateral=−2.0 mm from bregma; dorsoventral=−3.5 mm. For mouse substantia nigra pars compacta (SNpc) injection, one hole was drilled at the following coordinates: anterioposterior=−3.2 mm from bregma; lateral=−1.2 mm from bregma; dorsoventral=−4.2 mm. 1 ul LPS (5 ug) or PBS was injected at a rate of 0.2 ul/min using a Hamilton syringe with a 26-gauge blunt needle. […]
Immunohistochemistry. […] After antigen retrieval with 10 mM sodium citrate (pH 6.0) and 0.05% Tween-20 at 37° C. for 30 minutes, brain sections were washed in PBS for three times, permeabilized with 0.3% Triton X-100 in PBS, blocked with 10% goat serum in PBS, incubated with anti-tyrosine hydroxylase (TH) antibody overnight at 4° C., and then detected with Biotin-SP goat anti-rabbit IgG antibody at room temperature for 2 hours. […]
Stereological cell counting. […] Total cells were counted from 8 serial sections per animal.

Regarding `NC(=O)c1ncn([C@@H]2O[C@H](CO)[C@@H](O)[C@H]2O)c1N` [AICAr, 5-aminoimidazole-4-carboxamide riboside], where the note is “LRRK2 KO mice, AICAr 2.4 μg/day/animal into SNpc”, the LPS-induced neurodegeneration entry is “did not significantly rescue”. Further, the “LPS-induced DA neurodegeneration” value (WT mice, AICAr 2.4 μg/day/animal into SNpc by osmotic pumps) is “significantly reduced”.
